Among the data in PubChem BioAssay (NCI) are GI50 and TGI values, retold here.

Each structure is given as a SMILES string.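 1) Cells in 96-well plates. 2) Compound, 48 h, 5 concentrations. 3) Linear interpolation between surrounding doses. 4) Unreached endpoint = highest concentration. GI50: concentration for 50% inhibition of growth. TGI: concentration producing complete growth inhibition.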

Some test systems named below: OVCAR-5 ovarian; SW-620 colon; T-47D breast; RPMI-8226 leukemia; SF-539 CNS; NCI/ADR-RES ovarian; DU-145 prostate; HOP-62 NSCLC; HT29 colon; SK-MEL-2 melanoma.
Test in all cases: NCI anticancer screen, dose series, 48 h

On to `COc1cc(NS(C)(=O)=O)ccc1Nc1c2ccc(Cl)cc2nc2c(OC)cccc12`, for which the GI50 in the test on OVCAR-5 ovarian was 1.59 µM; in the test with SW-620 colon, 0.0799 µM; in the test on T-47D breast, 0.0826 µM; in the test with RPMI-8226 leukemia, 0.595 µM; in the test with SF-539 CNS, 0.059 µM; in the test on NCI/ADR-RES ovarian it was 1.35 µM. Also, the GI50 in the test on DU-145 prostate was less than 0.0143 µM; with HOP-62 NSCLC, 0.0561 µM; with HT29 colon it was 0.142 µM; with SK-MEL-2 melanoma it was 1.47 µM. Also, the TGI in the test on OVCAR-5 ovarian is 23.3 µM; in the test with SW-620 colon, 2.17 µM; with T-47D breast, 3.37 µM; with SF-539 CNS, 0.681 µM; with NCI/ADR-RES ovarian it was more than 49.4 µM; with DU-145 prostate, 0.505 µM. The TGI in the test with HOP-62 NSCLC came to 1.44 µM; in the test on HT29 colon, 1.85 µM; with SK-MEL-2 melanoma, 7.35 µM.
For `CCCN(CCC)C(=O)C1=Cc2ccc(-c3ccc(C(=O)N4CCCC4)cc3)cc2N=C(N)C1`, the GI50 was 20.1 µM in the test on OVCAR-5 ovarian; 7.1 µM in the test with SW-620 colon; 3.56 µM with T-47D breast; 7.66 µM in the test on RPMI-8226 leukemia; 11.7 µM in the test on SF-539 CNS; 19.4 µM in the test with NCI/ADR-RES ovarian. Besides, the GI50 in the test with DU-145 prostate was 20.6 µM; in the test on HOP-62 NSCLC it was 12.6 µM; with HT29 colon, 4.28 µM; in the test with SK-MEL-2 melanoma, 10.6 µM. In addition, the TGI with OVCAR-5 ovarian came out at 64.9 µM; in the test with SW-620 colon, 31.8 µM; in the test with T-47D breast it was 26.8 µM; with RPMI-8226 leukemia, 36.4 µM; in the test on SF-539 CNS it was 27 µM; in the test with NCI/ADR-RES ovarian it was 62.2 µM. Further, the TGI with DU-145 prostate was determined as 91.1 µM; in the test with HOP-62 NSCLC it was 65.4 µM; in the test with HT29 colon, 28.6 µM; in the test with SK-MEL-2 melanoma, 26.2 µM.
Regarding `CC(=O)N1N=C2/C(=C/c3ccccc3)CC(C)CC2C1c1ccccc1` (configuration not stated), the GI50 in the test on OVCAR-5 ovarian was 17.7 µM; in the test with SW-620 colon it was 15.2 µM; in the test on T-47D breast, 10.7 µM; in the test with RPMI-8226 leukemia it was 9.54 µM; in the test with SF-539 CNS, 17.4 µM; in the test on NCI/ADR-RES ovarian it was 12.5 µM. Also, the GI50 with DU-145 prostate is 16.1 µM; in the test on HOP-62 NSCLC it was 16.6 µM; with HT29 colon, 12.9 µM; in the test with SK-MEL-2 melanoma, 18.7 µM. In addition, the TGI stood at 32.2 µM in the test with OVCAR-5 ovarian; 33.2 µM in the test on SW-620 colon; 34.7 µM in the test with T-47D breast; 76.1 µM with RPMI-8226 leukemia; 32.7 µM in the test with SF-539 CNS; 28.8 µM with NCI/ADR-RES ovarian. Moreover, the TGI was 33.5 µM in the test on DU-145 prostate, 32.6 µM with HOP-62 NSCLC, 29.9 µM in the test on HT29 colon and 46.3 µM with SK-MEL-2 melanoma.
On to `C[C@@H]1CN(C(=O)c2ccc(NC(=O)c3cc(O[C@H](C)c4c(Cl)ccc(F)c4Cl)c(N)nn3)cc2)C[C@H](C)N1`, for which the GI50 with OVCAR-5 ovarian was 2.76 µM; in the test with SW-620 colon, 2.29 µM; in the test with T-47D breast it was 4.51 µM; with RPMI-8226 leukemia, 2.37 µM; in the test with SF-539 CNS it was 2.21 µM; in the test on NCI/ADR-RES ovarian it was 11.7 µM. Moreover, the GI50 in the test on DU-145 prostate was 6.7 µM; with HOP-62 NSCLC it was 2.5 µM; in the test on HT29 colon, 1.19 µM; with SK-MEL-2 melanoma it was 5.57 µM. For the same compound, the TGI stood at 17.6 µM in the test on OVCAR-5 ovarian; 12.6 µM in the test on SW-620 colon; 20.5 µM in the test with T-47D breast; 8.17 µM with RPMI-8226 leukemia; 5.07 µM with SF-539 CNS; 31.1 µM in the test on NCI/ADR-RES ovarian. In addition, the TGI amounted to 19.2 µM in the test with DU-145 prostate, 14.4 µM in the test with HOP-62 NSCLC, 3.46 µM with HT29 colon and 19.6 µM in the test on SK-MEL-2 melanoma.
Turning to `CC1=C(C(=O)Nc2ccc(F)c(Cl)c2)C(c2ccccc2Cl)NC(=S)N1` (configuration not stated), the GI50 in the test with OVCAR-5 ovarian is more than 50 µM; with SW-620 colon, more than 50 µM; with T-47D breast, more than 50 µM; in the test with RPMI-8226 leukemia, 38.3 µM; in the test on SF-539 CNS it was more than 50 µM; with NCI/ADR-RES ovarian it was 18 µM. Also, the results for the GI50 in the test with DU-145 prostate, in the test on HOP-62 NSCLC and in the test on SK-MEL-2 melanoma were more than 50 µM, more than 50 µM and 26.8 µM, respectively. The TGI with OVCAR-5 ovarian is more than 50 µM; in the test with SW-620 colon, more than 50 µM; in the test with T-47D breast, more than 50 µM; with RPMI-8226 leukemia, more than 50 µM; in the test on SF-539 CNS it was more than 50 µM; in the test with NCI/ADR-RES ovarian it was 49.1 µM. Further, the TGI with DU-145 prostate, in the test with HOP-62 NSCLC and in the test with SK-MEL-2 melanoma was more than 50 µM in each case.
As for `Cn1nccc1Nc1nccc(-c2cc3c(s2)C(C)(C)N(CCN2CCOCC2)C3=O)n1`, the GI50 was 0.498 µM in the test with OVCAR-5 ovarian; 1.22 µM in the test on SW-620 colon; 17.4 µM in the test with T-47D breast; 23.3 µM in the test with RPMI-8226 leukemia; 27.9 µM in the test on SF-539 CNS; 56 µM in the test with NCI/ADR-RES ovarian. Also, the GI50 in the test with DU-145 prostate was 25.8 µM; in the test on HOP-62 NSCLC it was 7.53 µM; in the test with HT29 colon it was 0.277 µM; in the test with SK-MEL-2 melanoma, 0.402 µM. Besides, the TGI in the test on OVCAR-5 ovarian was more than 100 µM; in the test on SW-620 colon, more than 100 µM; in the test with T-47D breast, more than 77.7 µM; with RPMI-8226 leukemia, more than 100 µM; in the test on SF-539 CNS, more than 100 µM; with NCI/ADR-RES ovarian, more than 100 µM. The TGI in the test on DU-145 prostate is more than 100 µM; in the test with HOP-62 NSCLC, more than 100 µM; in the test on HT29 colon, more than 100 µM; with SK-MEL-2 melanoma, 6.74 µM.
As for `Cc1cc(N2CCCCC2)nc(N(CCCNc2ccnc3cc(Cl)ccc23)Cc2ccco2)n1`, the GI50 was 3 µM in the test with OVCAR-5 ovarian; 1.61 µM in the test on SW-620 colon; 1.77 µM in the test with T-47D breast; 1.83 µM in the test on RPMI-8226 leukemia; 1.61 µM in the test with SF-539 CNS; 1.43 µM in the test with NCI/ADR-RES ovarian. The GI50 is 3.14 µM in the test with DU-145 prostate, 1.38 µM in the test with HOP-62 NSCLC, 1.2 µM with HT29 colon and 2.4 µM with SK-MEL-2 melanoma. Further, the TGI is 15 µM in the test with OVCAR-5 ovarian; 4.37 µM in the test on SW-620 colon; 4.44 µM in the test on T-47D breast; 4.46 µM in the test on RPMI-8226 leukemia; 3.19 µM in the test with SF-539 CNS; 3.87 µM in the test with NCI/ADR-RES ovarian. The TGI amounted to 12.9 µM with DU-145 prostate, 4.1 µM in the test on HOP-62 NSCLC, 4.95 µM in the test with HT29 colon and 6.25 µM in the test with SK-MEL-2 melanoma.
